One series concerns HepG2 cells. Kind of series: DHHεdA formation in HepG2 cellular DNA after EH or AA treatment, LC-MS/MS-MRM. The series is classed as cell-based, human. The following applies: 24 h. As to the method:
HepG2 cells (#HB-8065, ATCC, Manassas, Va.) were grown in complete DMEM (#10-013, Corning Life Sciences, Tewksbury, Mass.) until 85-90% confluent. Cells were treated with a final concentration of 100 μM or 300 μM of either arachidonic acid (AA) or EH solubilized in 70% EtOH for 24 h. Cells were then scraped down in media and transferred to a centrifuge tube and spun for 3000 rpm for 5 min. The pellet was washed 2× with 1×PBS, centrifuging between washes. DNA was then isolated from the cells and prepared for LC-MS/MS-MRM, after enzymatic hydrolysis as described above.
DNA was isolated by a QIAGEN Blood and Cell Culture DNA Maxi Kit (#13362, QIAGEN Inc., Valencia, Calif.) using the protocol recommended by the manufacturer. For hydrolysis, dry DNA (50 to 1000 μg) was dissolved in 5 mM magnesium chloride and 0.5 mM GSH solution (1 mL per 1 mg of DNA), then 50 fmol of [^15N5]-DHHεdA 1,2 and 50 fmol of [^15N5]-DHHεdA 3,4 were added as internal standards. DNA was hydrolyzed by incubation with DNase I (1300 units per mg of DNA, #D4527-40KU, Sigma-Aldrich, St. Louis, Mo.) for 30 min at 37° C., followed by a second addition of DNase I (1300 units per mg of DNA) and incubation for an additional 10 min at 37° C. Finally, phosphodiesterase I (0.06 units per mg DNA, #P3243-1VL, Sigma-Aldrich, St. Louis, Mo.), alkaline phosphatase (380 units per mg DNA, #10 108 146 001, Roche Diagnostic GmbH, Mannheim, Germany) and adenosine deaminase (0.5 units, #LS009043, Worthington Biochemical Corporation, Lakewood, N.J.) were added and the sample was incubated for 60 min at 37° C. After hydrolysis, a small portion of the hydrolysate was saved for further T quantification, and the remaining sample was purified using Phenomenex Strata-X 33μ 30 mg/1 mL polymeric reverse phase solid phase extraction columns (#8B-S100-TAK, Phenomenex, Torrance, Calif.). Before loading, samples columns were washed by ACN (3×1 mL) and stabilized by 25 mM ammonium formate pH=4.00 (3×1 mL). After loading, DNA hydrolysate columns were washed by 2.5% ACN in 25 mM ammonium formate pH=4.00 (1×1 mL), 5% ACN in 25 mM ammonium formate pH=4.00 (1×1 mL), followed by DHHεdA collection by 30% ACN in 25 mM ammonium formate pH=4.00 (1×1 mL). The DHHεdA fraction was dried using a SpeedVac rotary concentrator, re-dissolved in 400 μL 1:1 water:ACN, transferred to HPLC vials, dried and kept at −20° C. Before quantification, samples were dissolved in 60 μL of water and 37 μL was injected on LC-MS.
Quantification was carried out on a SCIEX 6500 QTRAP triple quadrupole mass spectrometer (AB Sciex LLC, Framingham, Mass.) interfaced with a Waters ACQUITY UPLC liquid chromatography system equipped with Waters ACQUITY UPLC BEH C18 50×2.1 mm, 1.7 μm particle size column (Waters Corporation, Milford, Mass.). The separation of adducts was performed isocratically by eluting with 13.5% ACN, 1 mM ammonium formate buffer over 6.5 min using 0.5 mL/min flow rate at 40° C., followed by 100% ACN wash. The ESI source operated in positive mode. The MRM experiment was performed using ion transitions of 406.2-290.2 m/z (DHHεdA) and 411.2-295.1 m/z ([^15N5]-DHHεdA) with CE of 28 eV for quantification, and those of 406.2-160.1 m/z (DHHεdA) and 411.2-165.0 m/z ([^15N5]-DHHεdA) with a CE of 76 eV were used for structural confirmation. All other parameters were optimized to achieve maximum signal intensity. Calibration curves were constructed for two HPLC resolved peaks before each analysis using standard solutions of DHHεdA and [^15N5]-DHHεdA. A constant concentration of [^15N5]-DHHεdA (1 fmol/μL) was used with different concentrations of DHHεdA (3.3 amol/μL-65 fmol/μL) and analyzed using 37 μL injections by LC-MS/MS-MRM. The standard curves were linear in the range from 0.37 to 800 fmol of DHHεdA on column for both peaks (1/x weighting; r^2=0.9998 and r^2=0.9984 for both LC resolved pairs of DHHεdA stereoisomers 1,2 and 3,4 respectively). […]

The subject of series [1] is Primary human hepatocytes. The series is described as follows: FACS detection of DHHεdA in nuclei of EH-treated primary human hepatocytes. The series is classed as cell-based. The conditions noted are these: 300 μM EH. As to the method: Primary human hepatocytes (#HUFS1M, Lot#HUM4132, Triangle Research Labs, Durham, N.C.) were cultured in hepatocyte media (#5201, ScienCell Research Laboratories, San Diego, Calif.) until 85-90% confluent. Cells were then treated with a final concentration of 300 μM EH dissolved in 70% EtOH, added to the culture media. The cells were collected at the designated time points following EH treatment: 0, 4, 8, 12 and 24 h. The nuclei were extracted using Nuclei EZ Prep Nuclei Isolation Kit (#NUC-101, Sigma-Aldrich, St. Louis, Mo.) and fixed with 3.7% formaldehyde for 10 min. The nuclei were then prepared for FACS analysis using the method shown previously.
The geometric mean of the fluorescence intensity of Alexa Fluor 488-labeled DHHεdA positive cells was measured using FACS. The output values of triplicate control and EH treatment groups (see above) were averaged and the standard deviation was calculated using Excel. Additionally, a Student's t-test was performed to determine significance by comparing the triplicate values for the control group to those of the EH treated group for each individual time point of 4, 8, 12, and 24 h.

Series [2] concerns Xpa−/− mice. The series is described as follows: 32-week bioassay of Xpa−/− mice fed antioxidant diets, γ-OHPdG by LC-MS/MS. It is filed as in vivo. The following applies: for liver γ-OHPdG levels: antioxidant diet vs control diet, liver DNA, LC-MS/MS; for γ-OHPdG levels in the lungs: antioxidant diet, lung (non-target organ).
Text: All of the mice were housed in a temperature-controlled, light-regulated space with 12-hour light and dark cycles and were given unrestricted access to food and water throughout the experiments. […] The animals were fed with AIN-76A powder diets obtained from Dyets, Inc. (Bethlehem, Pa.) at the age of 4 weeks; four types of diets (control, α-lipoic acid, Theaphenon E and vitamin-E) were used in this study. The only difference between the diets is the sucrose content to be replaced by the antioxidant (Table 1: the doses of the antioxidants, α-lipoic acid (2 g/kg), Theaphenon E (20 g/kg) and vitamin E (1.8 g/kg)), were selected according to recent studies, respectively. The nutrition for all the four diets was calculated within the range of 3694 to 3766 kcal/kg. […] The liver tissues were dissected and kept at −80° C. until usage for DNA isolation.
DNA (100-500 μg) was dissolved in 5 mM magnesium chloride (800 μL per mg DNA) and spiked with 100 fmol of [^13C10,^15N5]-γ-OHPdG and 50 fmol of [^13C10,^15N5]−/− OHPdG. Enzymatic hydrolysis was performed by incubation with DNase I (1300 units/mg DNA) at 37° C. for 30 min followed by a second addition of DNase I (1300 units/mg DNA). After an additional 10 min at 37° C., alkaline phosphatase (380 units/mg DNA), phosphodiesterase I (0.06 units/mg DNA) and adenosine deaminase (0.5 units) were added, and the mixture was incubated for 1 h. After digestion a small aliquot of hydrolysate was used for dG quantification and the remaining digest was purified by solid phase extraction (SPE) using polymeric C18, 30 mg/1 mL, Strata-X columns (Phenomenex, Inc., Torrance, Calif.). Prior to use, the columns were conditioned by ACN (3×1 mL) and 25 mM ammonium formate buffer pH=4 (3×1 mL). After sample loading, the columns were washed with 2.5% ACN in 25 mM ammonium formate buffer pH=4 (1×1 mL). Then, γ-OHPdG adducts were collected by eluting with 5% ACN in 25 mM ammonium formate buffer pH=4 (1×1 mL). Samples were dried over vacuum using a SpeedVac and kept at −80° C. Before quantification assay samples were reconstituted with 50 μl of water, and 37 μL of sample was injected onto LC-MS/MS.
Detection and quantification of γ-OHPdG adducts was carried on AB SCIEX 6500 QTrap triple quadrupole mass spectrometer (SCIEX, Framingham, Mass.) coupled with an ACQUITY UPLC liquid chromatography system (Waters Corporation, Milford, Mass.) equipped with 50×2.1 mm, 1.7 m particle size C18 column (Waters ACQUITY UPLC BEH C18). The separation of adducts was performed isocratically by eluting with 3% ACN, 1 mM ammonium formate buffer over 3.5 min using 0.5 mL/min flow rate at 40° C., followed by 100% ACN wash. The ESI source operated in positive mode. The multiple reaction monitoring (MRM) experiment was performed using ion transitions of 324.2-208.1 m/z (γ-OHPdG) and 339.2-218.1 m/z ([^13C10,^15N5]-γ-OHPdG) with a collision energy (CE) of 20 eV for quantification, and those of 324.2-190.1 m/z (γ-OHPdG) and 339.2-200.1 m/z ([^13C10,^15N5]-γ-OHPdG) with a CE of 47 eV for structural confirmation. All other parameters were optimized to achieve maximum signal intensity.
Series [3] concerns Xpa−/− mice. Kind of series: 72-week tumor bioassay of Xpa−/− mice fed antioxidant diets. It is filed as in vivo. The conditions noted are these: 72 weeks on diet, control diet 100%.
Text: C3H/HeN.Xpa^−/− mice were created by crossing C57/B6. Xpa^−/− mice with C3H/HeN mice. The resulting heterozygous mice were then backcrossed to C3H mice for five generations. Mice homogeneous for the Xpa-null allele on a C3H background were subsequently generated by brother-sister mating. All of the mice were housed in a temperature-controlled, light-regulated space with 12-hour light and dark cycles and were given unrestricted access to food and water throughout the experiments. […] The animals were fed with AIN-76A powder diets obtained from Dyets, Inc. (Bethlehem, Pa.) at the age of 4 weeks; four types of diets (control, α-lipoic acid, Theaphenon E and vitamin-E) were used in this study. The only difference between the diets is the sucrose content to be replaced by the antioxidant (Table 1: the doses of the antioxidants, α-lipoic acid (2 g/kg), Theaphenon E (20 g/kg) and vitamin E (1.8 g/kg)), were selected according to recent studies, respectively. The nutrition for all the four diets was calculated within the range of 3694 to 3766 kcal/kg. (n=6-7 for time dependent DNA adduct assay, n=18-19 for tumor bioassay after 72 weeks under different diets (see Table 4)). […] Xpa^−/− mice were fed with four types of diets (control, Theaphenon E, α-lipoic acid, and vitamin E) for 72 weeks.

The values that follow come from patent US20190227072A1, “Biomarkers for Carcinogenesis and Uses Thereof” (GEORGETOWN UNIVERSITY, priority 2016, published 2019).

“Also recorded” adds a separate entry of the source.

`CCCCC/C=C\C/C=C\C/C=C\C/C=C\CCCC(=O)O` [AA, arachidonic acid]: in the series with HepG2 cells (HepG2, low dose (100 μM)), the “DHHεdA peak 1” value is “bdl”, the “DHHεdA peak 2” value is given as “bdl” and the “Total DHHεdA” value is listed as “bdl”.
Turning to `CCCCCC(O)C1OC1C=O` (centres unmarked) [EH, 2,3-epoxy-4-hydroxynonanal], in the series on HepG2 cells (human, 100 μM), the “DHHεdA peak 1” value is reported as 14.1 adducts/T × 10^9, the “DHHεdA peak 2” value was 139.4 adducts/T × 10^9 and the “Total DHHεdA” value is listed as 153.5 adducts/T × 10^9. Also, in the series with HepG2 cells (human, 300 μM), the “DHHεdA peak 1” value was determined as 186.6 adducts/T × 10^9, the “DHHεdA peak 2” value is on record as 2043.8 adducts/T × 10^9 and the “Total DHHεdA” value is 2230.4 adducts/T × 10^9. The cell death entry in series [1] (24 h) is on record as “less than 20%”. Also, in series [1] (4, 8, 12 and 24 h vs control), the “mean fluorescence intensity of DHHεdA in nuclei (FACS, 3C9C9)” value was “significant difference between control and EH treated cells for every time point”.
In the case of `O=C(O)CCCCC1CCSS1` (stereo not drawn) [α-lipoic acid], in the series with Xpa−/− mice [2], the “liver γ-OHPdG levels” value is “effectively decreased; also recorded: significant decrease” and the “γ-OHPdG levels in the lungs” value was “no significant changes”. Also, in the series with Xpa−/− mice [3], the HCC incidence was 65%.
With vitamin E, in the series on Xpa−/− mice [2], the “liver γ-OHPdG levels” value was “but not vitamin E, effectively decreased; also recorded: significant decrease” and the “γ-OHPdG levels in the lungs” value was “no significant changes”. In addition, the HCC incidence entry in the series on Xpa−/− mice [3] was “no significant effect”.
